Source: patent publication US8609836B2, “4-aryl-2-anilino-pyrimidines” (Janssen Pharmaceutica NV, priority 2008, dated 2013)

Legend:
PLK1 T210D (h) = PLK1 T210D (h) (Homo sapiens, UniProt P53350, T210D); assay: PLK1 human kinase inhibition, SPA; assay type: biochemical; settings: read-out: PLK1 pIC50 (converted)
Summary of the method: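 Radiometric SPA with PLK1 T210D (0.125 ng/ml) in 50 mM Hepes pH 8.0, 2 mM MnCl2, 1 mM DTT, 2 μM biotinylated peptide, 0.1 μM ATP plus 2 nM [γ-33P]ATP. 40 min at room temperature, EDTA stop. Phosphorylated substrate captured on streptavidin PVT beads, scintillation imaged.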

H1299 = assay: Cellular proliferation assay (Alamar blue), H1299; assay type: cell-based; settings: Homo sapiens, NCI-H1299; 10% FCS; 72 hours with compound; Alamar blue 4 h
Summary of the method: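 This proliferation assay on NCI-H1299 cells used an initial 24-hour compound-free incubation after seeding, followed by 72 hours of compound treatment with 10% FCS serum at 37° C. and 5% (v/v) CO2. Viable cells were quantified by a 4 h Alamar blue incubation and fluorescent plate reading at 544 nm/590 nm, and effects were expressed relative to control cells.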

AuroraB (h) = AuroraB (h) (Homo sapiens, UniProt Q96GD4); assay: Aurora-B human kinase inhibition, SPA; assay type: biochemical; settings: read-out: AuroraB pIC50 (converted)
Summary of the method: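 SPA with biotinylated peptide (3 μM) in 60 mM Hepes pH 7.5, Mg/Mn 3 mM each, 0.5 μM ATP plus [γ-33P]ATP, AuroraB at 0.5 μg/ml. The reaction runs 60 min at room temperature and is stopped with EDTA and streptavidin PVT beads. 33P-substrate is read by scintillation imaging.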

PLK4 (h) = PLK4 (h) (Homo sapiens, UniProt O00444); assay: PLK-4 human kinase inhibition, scintillation proximity assay (SPA); assay type: biochemical; settings: read-out: PLK4 pIC50 (converted)
PLK3 (h) = PLK3 (h) (Homo sapiens, UniProt Q9H4B4); assay: PLK3 human kinase inhibition, SPA; assay type: biochemical; settings: read-out: PLK3 pIC50 (converted)
Summary of the method: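 SPA: PLK3 (h) at 30 μg/ml with 2 μM biotinylated peptide, 0.1 μM ATP plus 2 nM [γ-33P]ATP in 50 mM Hepes pH 8.0, 2 mM MnCl2 and 1 mM DTT. Incubated 20 min at room temperature, then stopped with EDTA and streptavidin PVT beads. Scintillation imaged on Leadseeker.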

CDK1/CyclinB (h) = CDK1/CyclinB (h) (Homo sapiens, UniProt P06493); assay: CDK1/CyclinB human kinase inhibition, Invitrogen's FRET assay (Z'lyte); assay type: biochemical; settings: read-out: CDK1 pIC50 (converted)
Summary of the method: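 Z'lyte FRET assay: human CDK1/CyclinB (0.2 μg/ml) with 2 μM Ser/Thr peptide 12 and 10 μM ATP in 50 mM Hepes pH 7.5, MgCl2, EGTA, Brij-35, 60 min at room temperature. Protease development 60 min, then emission ratio 460/538 nm read with excitation at 390 nm.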

HCT-116 = assay: Cellular proliferation assay (Alamar blue), HCT-116; assay type: cell-based; settings: Homo sapiens, 10% FCS, 72 hours with compound, Alamar blue 4 h
Summary of the method: (§1)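 Cells were seeded in medium with 10% FCS at 37° C, 5% CO2, left 24 h without compound, then exposed to compounds for 72 h. Viability was read with Alamar blue (resazurin 9 μg/ml, K-ferrocyanide and K-ferricyanide 90 μM each), 6 h for U87-MG, 4 h for HCT-116, 24 h for A2780 and MDA-MB-231.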

MDA-MB-231 = assay: Cellular proliferation assay (Alamar blue), MDA-MB-231; assay type: cell-based; settings: Homo sapiens, 10% FCS, 72 hours with compound, Alamar blue 24 h, read-out: MDA/MB231 (cellular proliferation assay, Table 4) (converted)
Summary of the method: as §1

A2780 = assay: Cellular proliferation assay (Alamar blue), A2780; assay type: cell-based; settings: Homo sapiens, 10% FCS, 72 hours with compound, Alamar blue 24 h, read-out: A2780 (cellular proliferation assay, Table 4) (converted)
Summary of the method: as §1

Chain of PLK4 (h) (O00444 whole entry): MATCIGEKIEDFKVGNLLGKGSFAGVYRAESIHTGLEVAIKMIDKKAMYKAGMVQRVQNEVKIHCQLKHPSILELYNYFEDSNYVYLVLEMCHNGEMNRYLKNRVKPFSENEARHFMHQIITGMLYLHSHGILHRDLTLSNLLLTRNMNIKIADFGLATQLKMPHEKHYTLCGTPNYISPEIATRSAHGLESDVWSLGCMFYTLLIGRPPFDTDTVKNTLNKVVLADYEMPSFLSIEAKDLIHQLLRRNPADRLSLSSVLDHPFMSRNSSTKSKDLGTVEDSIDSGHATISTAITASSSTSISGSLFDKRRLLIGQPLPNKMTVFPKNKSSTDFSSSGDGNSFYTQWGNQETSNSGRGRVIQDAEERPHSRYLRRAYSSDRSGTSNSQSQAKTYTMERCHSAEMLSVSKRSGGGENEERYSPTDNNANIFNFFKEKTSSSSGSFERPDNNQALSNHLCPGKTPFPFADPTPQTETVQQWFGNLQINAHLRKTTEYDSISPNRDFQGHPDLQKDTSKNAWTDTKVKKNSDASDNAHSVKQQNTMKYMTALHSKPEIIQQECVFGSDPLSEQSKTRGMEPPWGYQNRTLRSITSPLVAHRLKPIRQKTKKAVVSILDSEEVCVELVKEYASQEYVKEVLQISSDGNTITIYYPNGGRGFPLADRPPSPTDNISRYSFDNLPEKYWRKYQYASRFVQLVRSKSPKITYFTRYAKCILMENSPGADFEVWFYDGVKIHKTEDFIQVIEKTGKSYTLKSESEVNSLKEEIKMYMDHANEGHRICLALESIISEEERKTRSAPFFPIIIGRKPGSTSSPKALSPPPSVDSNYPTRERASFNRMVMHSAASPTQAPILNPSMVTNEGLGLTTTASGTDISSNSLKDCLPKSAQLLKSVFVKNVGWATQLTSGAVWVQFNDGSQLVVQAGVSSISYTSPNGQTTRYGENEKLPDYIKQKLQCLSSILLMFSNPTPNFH
Chain of CDK1/CyclinB (h) (P06493 whole entry): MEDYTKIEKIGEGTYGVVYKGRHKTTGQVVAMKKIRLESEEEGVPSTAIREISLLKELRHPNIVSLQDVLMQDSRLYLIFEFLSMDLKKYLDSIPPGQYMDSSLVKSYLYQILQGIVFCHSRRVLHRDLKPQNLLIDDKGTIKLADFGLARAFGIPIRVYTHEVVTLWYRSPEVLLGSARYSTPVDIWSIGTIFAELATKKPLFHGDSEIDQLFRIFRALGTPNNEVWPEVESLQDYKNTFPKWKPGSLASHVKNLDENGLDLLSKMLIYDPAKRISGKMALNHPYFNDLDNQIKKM
Chain of CDK1/CyclinB (h) (P14635 whole entry partner): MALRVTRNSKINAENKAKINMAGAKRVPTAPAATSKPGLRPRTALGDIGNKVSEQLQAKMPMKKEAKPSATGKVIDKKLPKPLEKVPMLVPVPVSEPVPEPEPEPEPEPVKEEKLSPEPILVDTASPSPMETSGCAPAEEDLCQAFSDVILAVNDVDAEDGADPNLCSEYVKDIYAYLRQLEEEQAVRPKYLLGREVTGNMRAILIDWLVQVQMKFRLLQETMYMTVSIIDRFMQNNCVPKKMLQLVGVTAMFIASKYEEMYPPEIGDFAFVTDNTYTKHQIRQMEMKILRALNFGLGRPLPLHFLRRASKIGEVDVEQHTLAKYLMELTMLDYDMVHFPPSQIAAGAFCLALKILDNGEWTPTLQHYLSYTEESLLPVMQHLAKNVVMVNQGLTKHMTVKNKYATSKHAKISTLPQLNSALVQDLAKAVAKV
Chain of PLK3 (h) (Q9H4B4 whole entry): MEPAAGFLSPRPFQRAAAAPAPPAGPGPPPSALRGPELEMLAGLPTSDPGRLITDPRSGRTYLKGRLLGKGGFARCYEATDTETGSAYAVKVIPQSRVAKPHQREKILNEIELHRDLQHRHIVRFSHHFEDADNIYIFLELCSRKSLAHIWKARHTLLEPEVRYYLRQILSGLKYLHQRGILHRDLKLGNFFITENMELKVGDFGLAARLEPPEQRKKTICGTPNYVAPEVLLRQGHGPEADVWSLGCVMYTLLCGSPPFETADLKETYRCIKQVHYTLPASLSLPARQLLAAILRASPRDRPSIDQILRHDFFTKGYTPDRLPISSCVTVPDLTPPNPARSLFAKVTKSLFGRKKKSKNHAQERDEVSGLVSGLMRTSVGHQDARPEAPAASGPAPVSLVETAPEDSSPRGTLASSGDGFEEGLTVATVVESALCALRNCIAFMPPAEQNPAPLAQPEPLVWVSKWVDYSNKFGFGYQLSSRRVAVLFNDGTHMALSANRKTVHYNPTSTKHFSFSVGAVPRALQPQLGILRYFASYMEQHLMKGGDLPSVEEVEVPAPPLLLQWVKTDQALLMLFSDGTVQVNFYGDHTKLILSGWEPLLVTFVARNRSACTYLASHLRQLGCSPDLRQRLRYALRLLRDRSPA
Chain of PLK1 T210D (h) (P53350 whole entry T210D): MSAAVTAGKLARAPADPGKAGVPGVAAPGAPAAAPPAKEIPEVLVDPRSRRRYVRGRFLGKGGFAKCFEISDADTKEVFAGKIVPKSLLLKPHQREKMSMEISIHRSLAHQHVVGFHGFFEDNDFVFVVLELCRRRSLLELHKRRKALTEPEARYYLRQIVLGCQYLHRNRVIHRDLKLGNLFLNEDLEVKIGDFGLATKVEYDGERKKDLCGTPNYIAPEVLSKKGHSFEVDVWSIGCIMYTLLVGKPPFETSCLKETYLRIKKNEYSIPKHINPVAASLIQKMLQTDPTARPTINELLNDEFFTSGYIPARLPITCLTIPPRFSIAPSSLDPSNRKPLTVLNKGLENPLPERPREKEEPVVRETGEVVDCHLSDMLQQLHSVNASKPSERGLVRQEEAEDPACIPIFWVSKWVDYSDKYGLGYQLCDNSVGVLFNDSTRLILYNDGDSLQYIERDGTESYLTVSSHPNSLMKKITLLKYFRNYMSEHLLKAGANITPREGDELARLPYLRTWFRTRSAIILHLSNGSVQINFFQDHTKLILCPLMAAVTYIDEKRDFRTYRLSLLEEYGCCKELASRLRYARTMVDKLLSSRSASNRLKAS
Chain of AuroraB (h) (Q96GD4 whole entry): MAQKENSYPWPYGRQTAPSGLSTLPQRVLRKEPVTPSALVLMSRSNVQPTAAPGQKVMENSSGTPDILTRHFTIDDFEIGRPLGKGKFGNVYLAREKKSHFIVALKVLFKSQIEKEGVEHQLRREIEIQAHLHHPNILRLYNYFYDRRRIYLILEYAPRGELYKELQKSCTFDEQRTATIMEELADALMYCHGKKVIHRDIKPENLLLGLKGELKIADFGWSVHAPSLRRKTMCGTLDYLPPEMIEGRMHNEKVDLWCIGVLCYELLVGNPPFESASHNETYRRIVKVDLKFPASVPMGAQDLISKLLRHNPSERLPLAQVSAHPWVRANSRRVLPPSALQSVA

| Structure (SMILES) | IC50 (PLK1 T210D (h)) | IC50 (H1299) | IC50 (AuroraB (h)) | IC50 (PLK4 (h)) | IC50 (PLK3 (h)) | IC50 (CDK1/CyclinB (h)) | IC50 (HCT-116) | IC50 (MDA-MB-231) | IC50 (A2780) |
| --- | --- | --- | --- | --- | --- | --- | --- | --- | --- |
| O=C1NCCNCc2ccc(cc2)-c2ccnc(n2)Nc2ccc(N3CCOCC3)c(c2)CN[C@H]1CO [Compound 115] | > 10 µM | > 10 µM | > 10 µM | 1.35 µM | > 10 µM | > 10 µM | > 10 µM | > 10 µM | > 10 µM |
| COc1ccc2cc1CNCCNC(=O)CN1CCN(CC1)Cc1cc(ccc1N1CCOCC1)Nc1nccc-2n1 [Compound 126] | > 10 µM | > 10 µM | 8.71 µM | 0.813 µM | > 10 µM | > 10 µM | 8.71 µM | > 10 µM | 5.37 µM |
| COc1ccc2cc1CN(C)CCCNC(=O)CN1CCN(CC1)Cc1cc(cc(NC(C)C)c1)Nc1nccc-2n1 [Compound 130] | > 10 µM | > 10 µM | 6.31 µM | 1.23 µM | > 10 µM | 7.76 µM | > 10 µM | > 10 µM | > 10 µM |
| CN1CCNC(=O)CN2CCN(CC2)Cc2cc(cc(N3CCOCC3)c2)Nc2nccc(n2)-c2ccc(cc2)C1 [Compound 135] | > 10 µM | > 10 µM | > 10 µM | 1.74 µM | > 10 µM | > 10 µM | > 10 µM | > 10 µM | > 10 µM |
| COc1ccc2cc1CN(C)CCCNC(=O)CN1CCN(CC1)Cc1cc(cc(N3CCOCC3)c1)Nc1nccc-2n1 [Compound 141] | > 10 µM | > 10 µM | > 10 µM | 3.02 µM | > 10 µM | > 10 µM | 2.29 µM | > 10 µM | 8.91 µM |
| COc1ccc2cc1CN(C)CCNC(=O)CN1CCN(CC1)Cc1cc(cc(NC(C)C)c1)Nc1nccc-2n1 [Compound 142] | > 10 µM | > 10 µM | > 10 µM | 3.31 µM | > 10 µM | 8.51 µM | > 10 µM | > 10 µM | > 10 µM |
| COc1ccc2cc1CN(C)CCCNC(=O)CN1CCN(CC1)Cc1cc(Br)cc(c1)Nc1nccc-2n1 [Compound 144] | > 10 µM | > 10 µM | 7.94 µM | 4.17 µM | > 10 µM | > 10 µM | > 10 µM | > 10 µM | > 10 µM |
| COc1ccc2cc1CN(C)CCNC(=O)CN1CCN(CC1)Cc1cc(cc(N3CCOCC3)c1)Nc1nccc-2n1 [Compound 145] | > 10 µM | > 10 µM | > 10 µM | 4.37 µM | > 10 µM | > 10 µM | > 10 µM | > 10 µM | > 10 µM |
| COc1ccc2cc1CN(C)CCCNC(=O)CN1CCN(CC1)Cc1cccc(c1)Nc1nccc-2n1 [Compound 146] | > 10 µM | > 10 µM | > 10 µM | 6.76 µM | > 10 µM | > 10 µM | > 10 µM | > 10 µM | > 10 µM |
| COc1ccc2cc1CN(C)CCNC(=O)CN1CCN(CC1)Cc1cccc(c1)Nc1nccc-2n1 [Compound 147] | > 10 µM | > 10 µM | > 10 µM | > 10 µM | > 10 µM | > 10 µM | > 10 µM | > 10 µM | > 10 µM |
| CC(C)Nc1cc2cc(c1)Nc1nccc(n1)-c1ccc(cc1)CN(C)CCNC(=O)[C@@H]1CCCN1C2 [Compound 153] | > 10 µM | > 10 µM | > 10 µM | 0.776 µM | > 10 µM | 2.82 µM | 5.5 µM | > 10 µM | > 10 µM |
| CN1CCNC(=O)[C@@H]2CCCN2Cc2cc(Br)cc(c2)Nc2nccc(n2)-c2ccc(cc2)C1 [Compound 155] | > 10 µM | > 10 µM | > 10 µM | 0.832 µM | > 10 µM | > 10 µM | > 10 µM | > 10 µM | > 10 µM |
| O=C1NCCNc2cc(ccn2)-c2ccnc(n2)Nc2ccc(N3CCOCC3)c(c2)CN2CCCC12 (stereo not drawn) [Compound 161] | > 10 µM | 10 µM | 6.17 µM | 1.58 µM | > 10 µM | 5.13 µM | 4.68 µM | > 10 µM | 9.77 µM |
| COc1ccc2cc1CN(C)CCCNC(=O)[C@@H]1CCCN1Cc1cc(cc(NC(C)C)c1)Nc1nccc-2n1 [Compound 164] | > 10 µM | > 10 µM | > 10 µM | 2.63 µM | > 10 µM | > 10 µM | > 10 µM | > 10 µM | > 10 µM |
| O=C1NCCCNCc2ccc(cc2)-c2ccnc(n2)Nc2ccc(N3CCOCC3)c(c2)CN2C[C@H](O)C[C@@H]12 [Compound 169] | > 10 µM | > 10 µM | > 10 µM | 3.89 µM | > 10 µM | > 10 µM | > 10 µM | > 10 µM | > 10 µM |
| CN1CCCNC(=O)[C@@H]2CCCN2Cc2cccc(c2)Nc2nccc(n2)-c2ccc(cc2)C1 [Compound 173] | > 10 µM | > 10 µM | > 10 µM | 6.17 µM | > 10 µM | > 10 µM | > 10 µM | > 10 µM | > 10 µM |
| COc1ccc2cc1CN(C)CCNC(=O)[C@@H]1CCCN1Cc1cccc(c1)Nc1nccc-2n1 [Compound 175] | > 10 µM | > 10 µM | > 10 µM | 8.51 µM | > 10 µM | > 10 µM | > 10 µM | > 10 µM | > 10 µM |
| COc1ccc2cc1CNCCNC(=O)[C@@H]1C[C@@H](O)CN1Cc1cc(ccc1N1CCOCC1)Nc1nccc-2n1 [Compound 177] | > 10 µM | > 10 µM | > 10 µM | > 10 µM | > 10 µM | > 10 µM | > 10 µM | > 10 µM | > 10 µM |
| COc1ccc2cc1CNCCNC(=O)[C@@H]1CCCN1Cc1cc(ccc1N1CCOCC1)Nc1nccc-2n1 [Compound 178] | > 10 µM | > 10 µM | > 10 µM | > 10 µM | > 10 µM | > 10 µM | > 10 µM | > 10 µM | > 10 µM |
| COc1ccc2cc1CN(C)CCCNC(=O)[C@@H]1CCCN1Cc1cc(cc(N3CCOCC3)c1)Nc1nccc-2n1 [Compound 179] | > 10 µM | > 10 µM | > 10 µM | > 10 µM | > 10 µM | > 10 µM | > 10 µM | > 10 µM | > 10 µM |
| COc1ccc2cc1CN(C)CCCNC(=O)[C@@H]1CCCN1Cc1cccc(c1)Nc1nccc-2n1 [Compound 180] | > 10 µM | > 10 µM | > 10 µM | > 10 µM | > 10 µM | > 10 µM | > 10 µM | > 10 µM | > 10 µM |
